experiment: recombinant UMI read abundance after kanamycin selection (control-corrected) (log10(CPM+1)); higher = more efficient recombination; extreme values may be limits of the assay; sequences stand for … in AGTGCAGAGAAAATCGGCCAGTTTTCTCTGCCTGCAGTCCGCATGCCGTGGGACCCCTTGGGTTCTAACCTGTTGCCTAGATTTATGCAGCGGACTGCCTTTCTCCCAAAGTGATAAACCGG…AGGTTGGTTTCACT; site = the 11-nt donor
Method in brief: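 Two replicates each of selected and unselected plating were used in this pooled Escherichia coli screen of donor and donor-binding-loop pairs for the IS621 bridge recombinase. Selection was with IPTG (0.07 mM) and kanamycin. Counts of recombinant UMIs, amplified across the donor–target junction, were converted to CPM, averaged, scaled by control-derived factors and reported as log10(CPM+1).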
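Note: IS621 bridge recombinase in Escherichia coli cells against a fixed T5 target plasmid.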

Sequence	recombinant UMI read abundance (log10)
CGGCCATCATGGACCGGTTTTCCCGGTAATCCGTATTTGCT (site CGGTCATCTAG)	0
GCGAATCCATGGACCGGTTTTCCCGGTAATCCGTATTTGGG (site GCGAATCCTCC)	0.00555
CAGAGTCCATGGACCGGTTTTCCCGGTAATCCGTATTTGCC (site CAGAGTCCTGG)	1.8
AAGTACGCATGGACCGGTTTTCCCGGTAATCCGTATTTGGG (site AAGGACGCTCC)	0.492
AGAAAGGCATGGACCGGTTTTCCCGGTAATCCGTATTTGCC (site AGAAAGGCTAG)	0
ACTAGAACATGGACCGGTTTTCCCGGTAATCCGTATTTGGG (site ACTAGAACTCT)	0.0325
CTTCCCTCATGGACCGGTTTTCCCGGTAATCCGTATTTGTA (site CTTCTCTCTTA)	0.434
GTGGATGCATGGACCGGTTTTCCCGGTAATCCGTATTTGTG (site GTGGAAGCTCA)	1.82
AATCTCCCATGGACCGGTTTTCCCGGTAATCCGTATTTGCT (site AATCTCCCTAG)	0.736
GTCCAGGCATGGACCGGTTTTCCCGGTAATCCGTATTTGTA (site GTCCAGGCTTA)	0.928
GTGGAGGCATGGACCGGTTTTCCCGGTAATCCGTATTTGCG (site GTGGAGGCTCA)	1.56
TCAAATTCATGGACCGGTTTTCCCGGTAATCCGTATTTGCC (site TCGAATTCTGG)	0
TAATGAGCATGGACCGGTTTTCCCGGTAATCCGTATTTGGT (site TAATGAGCTTC)	0.0263
GTAGGGGCATGGACCGGTTTTCCCGGTAATCCGTATTTGAA (site GTAGGGGCTTT)	1.18
TTGGGTGCATGGACCGGTTTTCCCGGTAATCCGTATTTGAT (site TTGGGTGCTAT)	1.6
TATGTAACATGGACCGGTTTTCCCGGTAATCCGTATTTGCT (site CATGTAACTAG)	1.18
ACCTAAGCATGGACCGGTTTTCCCGGTAATCCGTATTTGGC (site ACCTAAGCTGC)	2.22
CCTAAAGCATGGACCGGTTTTCCCGGTAATCCGTATTTGAT (site CCTAATGCTAT)	0.00544
CAAGCGCCATGGACCGGTTTTCCCGGTAATCCGTATTTGAG (site CAAGCGCCTCG)	0.0182
ATATGGCCATGGACCGGTTTTCCCGGTAATCCGTATTTGAC (site ATACGGCCTGT)	0
GAAGCGCCATGGACCGGTTTTCCCGGTAATCCGTATTTGTG (site GAAGCGCCTCA)	0.139
TTGCTGTCATGGACCGGTTTTCCCGGTAATCCGTATTTGAT (site TTGCTGTCTAT)	0.00531
AGTACACCATGGACCGGTTTTCCCGGTAATCCGTATTTGAC (site GGTACACCTGT)	0
GGGGATGCATGGACCGGTTTTCCCGGTAATCCGTATTTGGC (site GGGGATGCTGC)	0
ACATCATCATGGACCGGTTTTCCCGGTAATCCGTATTTGCT (site ACATCATCTAG)	1.39

Sequence	recombinant UMI read abundance (log10)
TACACCGCATGGACCGGTTTTCCCGGTAATCCGTATTTGCG (site TCCACCGCTCG)	0
ATCTATACATGGACCGGTTTTCCCGGTAATCCGTATTTGAC (site ATCTATCCTGT)	0
GTCGAACCATGGACCGGTTTTCCCGGTAATCCGTATTTGAC (site GTCGAACCTGT)	0
CTAGTATCATGGACCGGTTTTCCCGGTAATCCGTATTTGAC (site CTAGTACCTGT)	0
CGCTGGACATGGACCGGTTTTCCCGGTAATCCGTATTTGAA (site CGCTGGACTTT)	1.77
AATGTGCCATGGACCGGTTTTCCCGGTAATCCGTATTTGCT (site AATGTGCCTAG)	0.0116
CACGGCCCATGGACCGGTTTTCCCGGTAATCCGTATTTGTT (site CACGGCCCTAG)	1.14
CCTGCCGCATGGACCGGTTTTCCCGGTAATCCGTATTTGCC (site CCTGCCGCTGG)	0
GGTTGGACATGGACCGGTTTTCCCGGTAATCCGTATTTGAC (site GATTGGACTGT)	0
CGTCGAACATGGACCGGTTTTCCCGGTAATCCGTATTTGTT (site CGTCGAACTAA)	0
ACTGGAACATGGACCGGTTTTCCCGGTAATCCGTATTTGAG (site ACTAGAACTCT)	1.69
GATTGGACATGGACCGGTTTTCCCGGTAATCCGTATTTGAT (site GATTGGACTAT)	0.838
CTAGTATCATGGACCGGTTTTCCCGGTAATCCGTATTTGAC (site CTACTATCTGG)	0
ACAAGTTCATGGACCGGTTTTCCCGGTAATCCGTATTTGTG (site ACAAGTTCTCA)	2.42
TAGAAGACATGGACCGGTTTTCCCGGTAATCCGTATTTGCA (site TAGAATACTTG)	0
GCGAATCCATGGACCGGTTTTCCCGGTAATCCGTATTTGGG (site GCGAACCCTCC)	0
CTAGTATCATGGACCGGTTTTCCCGGTAATCCGTATTTGAC (site CTTGTATCTGC)	0
CGTGGAACATGGACCGGTTTTCCCGGTAATCCGTATTTGTT (site CGTGGAACTAT)	0.403
TTAGCGGCATGGACCGGTTTTCCCGGTAATCCGTATTTGCT (site TTCGCGGCTAG)	0
TACTGAGCATGGACCGGTTTTCCCGGTAATCCGTATTTGGG (site TACTGAGCTCC)	0.356
CTAGTGTCATGGACCGGTTTTCCCGGTAATCCGTATTTGAC (site CTAGTGTCTGT)	0
ACACTATCATGGACCGGTTTTCCCGGTAATCCGTATTTGCG (site ACACTATCTCG)	2.79
TTAGCGGCATGGACCGGTTTTCCCGGTAATCCGTATTTGCT (site TTAGCGGCTAG)	1.71
GGAGTCGCATGGACCGGTTTTCCCGGTAATCCGTATTTGGT (site GGAGTGGCTAC)	0.0282
CCAGGTGCATGGACCGGTTTTCCCGGTAATCCGTATTTGGT (site CCAGGTGCTAC)	0.188

Sequence	recombinant UMI read abundance (log10)
CCTAATACATGGACCGGTTTTCCCGGTAATCCGTATTTGGC (site CCTAACACTGC)	0
CGAACATCATGGACCGGTTTTCCCGGTAATCCGTATTTGGA (site CGAACATCTTC)	1.93
TTGGTTTCATGGACCGGTTTTCCCGGTAATCCGTATTTGTT (site TTGGTTTCTAA)	0.417
GATGACACATGGACCGGTTTTCCCGGTAATCCGTATTTGTC (site GATGACACTGA)	1.18
GGCCATCCATGGACCGGTTTTCCCGGTAATCCGTATTTGGC (site GGCCATCCTGC)	0
CTAGTATCATGGACCGGTTTTCCCGGTAATCCGTATTTGAC (site CACGTATCTGT)	0.0166
GAGGAGGCATGGACCGGTTTTCCCGGTAATCCGTATTTGTG (site GAGGAGGCTCA)	0.576
GCTACCGCATGGACCGGTTTTCCCGGTAATCCGTATTTGCC (site GCTACTGCTGG)	0
CCTAATACATGGACCGGTTTTCCCGGTAATCCGTATTTGGC (site CCTGATACTGC)	0.00582
CGGACTACATGGACCGGTTTTCCCGGTAATCCGTATTTGCG (site CGGACTACTCG)	1.64
CAGCCTTCATGGACCGGTTTTCCCGGTAATCCGTATTTGGT (site AAGCCTTCTAC)	0
TCGAAAACATGGACCGGTTTTCCCGGTAATCCGTATTTGCT (site GCGAAAACTAG)	0
GCACGATCATGGACCGGTTTTCCCGGTAATCCGTATTTGTA (site GCACGATCTTA)	2.74
TAGCTCGCATGGACCGGTTTTCCCGGTAATCCGTATTTGAA (site TAGCTAGCTTT)	0.0173
GTTCTAGCATGGACCGGTTTTCCCGGTAATCCGTATTTGCA (site GTTCTAGCTTG)	0.902
CACTTGGCATGGACCGGTTTTCCCGGTAATCCGTATTTGAA (site CACTTGGCTTT)	1.33
TAATCAGCATGGACCGGTTTTCCCGGTAATCCGTATTTGGG (site TAATTAGCTCC)	0.0124
CCTAATACATGGACCGGTTTTCCCGGTAATCCGTATTTGGC (site ACTAATACTGC)	0
CTGGAAACATGGACCGGTTTTCCCGGTAATCCGTATTTGCA (site CGGGAAACTTG)	0
CTGGAATCATGGACCGGTTTTCCCGGTAATCCGTATTTGCA (site CTGGAACCTTG)	0
CAGCCTTCATGGACCGGTTTTCCCGGTAATCCGTATTTGGT (site TAGCCTTCTAC)	0.0206
CTGCTACCATGGACCGGTTTTCCCGGTAATCCGTATTTGGT (site CTGCTACCTAG)	0
GCTTGGACATGGACCGGTTTTCCCGGTAATCCGTATTTGAC (site GGTTGGACTGT)	0.132
TCGATGTCATGGACCGGTTTTCCCGGTAATCCGTATTTGTA (site TCGATGTCTTA)	1.41
GGAGTGGCATGGACCGGTTTTCCCGGTAATCCGTATTTGGT (site GGAGTGGCTTC)	0.0104
